In brackets after ≈: the same amount, converted by molar mass.
System: extended bacterial panel
Test: MIC against an extended bacterial panel (Table 15)
Type: cell-based

SMILES: Cc1cc(C)nc(N[C@@H]2CCN(c3c(F)cc4c(=O)c(C(=O)O)cn5c4c3OC[C@@H]5C)C2)n1 [KSN-BL7, (S)-10-((R)-3-((4,6-dimethylpyrimidin-2-yl)amino)pyrrolidin-1-yl)-9-fluoro-3-methyl-7-oxo-2,3-dihydro-7H-[1,4]oxazino[2,3,4-ij]quinoline-6-carboxylic acid]
- MIC (Staphylococcus aureus, MRSA / NRS 484, Staphylococcus aureus NRS484, USA1100 MRSA): ≤ 0.0312 µg/mL
- MIC (Staphylococcus aureus, MRSA / VISA, Staphylococcus aureus FDA-CDC AR-BANK# 0215): 16 µg/mL (≈ 35.3 µM)
- MIC (Staphylococcus aureus, MRSA / VISA, Staphylococcus aureus FDA-CDC AR-BANK# 0216): 0.5 µg/mL (≈ 1.1 µM)
- MIC (Staphylococcus aureus, MRSA / VISA, Staphylococcus aureus FDA-CDC AR-BANK# 0217): 1 µg/mL (≈ 2.21 µM)
- MIC (Staphylococcus aureus, MRSA / VISA, Staphylococcus aureus FDA-CDC AR-BANK# 0218, MRSA/VISA Mupirocin-R): 1 µg/mL (≈ 2.21 µM)
- MIC (Staphylococcus aureus, MRSA / VISA, Staphylococcus aureus FDA-CDC AR-BANK# 0219): 4 µg/mL (≈ 8.82 µM)
- MIC (Staphylococcus aureus, MRSA / VISA, Staphylococcus aureus FDA-CDC AR-BANK# 0220): 1 µg/mL (≈ 2.21 µM)
- MIC (Staphylococcus aureus, MRSA / VISA, Staphylococcus aureus FDA-CDC AR-BANK# 0221): 0.5 µg/mL (≈ 1.1 µM)
- MIC (Staphylococcus aureus, MRSA / VISA, Staphylococcus aureus FDA-CDC AR-BANK# 0223): 1 µg/mL (≈ 2.21 µM)
- MIC (Staphylococcus aureus, MRSA / VISA, Staphylococcus aureus FDA-CDC AR-BANK# 0224, MRSA/VISA Mupirocin-R): 1 µg/mL (≈ 2.21 µM)
- MIC (Staphylococcus aureus, MRSA / VISA, Staphylococcus aureus FDA-CDC AR-BANK# 0225): 1 µg/mL (≈ 2.21 µM)
- MIC (Staphylococcus aureus, MRSA / VISA, Staphylococcus aureus FDA-CDC AR-BANK# 0226): ≤ 0.0312 µg/mL
- MIC (Staphylococcus aureus, MRSA / VISA, Staphylococcus aureus FDA-CDC AR-BANK# 0227): 1 µg/mL (≈ 2.21 µM)
- MIC (Staphylococcus aureus, MRSA / VISA, Staphylococcus aureus FDA-CDC AR-BANK# 0228, MRSA/VISA Mupirocin-R): 8 µg/mL (≈ 17.6 µM)
- MIC (Staphylococcus aureus, MRSA / VRSA, Staphylococcus aureus VRS1, VanA MRSA/VRSA): 1 µg/mL (≈ 2.21 µM)
- MIC (Staphylococcus aureus, MRSA / VRSA, Staphylococcus aureus VRS2, VanA MRSA/VRSA): 0.5 µg/mL (≈ 1.1 µM)
- MIC (Staphylococcus aureus, MRSA / VRSA, Staphylococcus aureus VRS3a, VanA MRSA/VRSA): 0.5 µg/mL (≈ 1.1 µM)
- MIC (Staphylococcus aureus, MRSA / VRSA, Staphylococcus aureus VRS11b, VanA MRSA/VRSA): 2 µg/mL (≈ 4.41 µM)
- MIC (Staphylococcus aureus, MRSA, Staphylococcus aureus ECL 2963621, MRSA DAP-NS): 0.25 µg/mL (≈ 0.551 µM)
- MIC (Staphylococcus aureus, MRSA, Staphylococcus aureus ECL 2963666, MRSA DAP-NS): 1 µg/mL (≈ 2.21 µM)
- MIC (Staphylococcus aureus, MRSA, Staphylococcus aureus ECL 2963667, MRSA DAP-NS): 1 µg/mL (≈ 2.21 µM)
- MIC (Staphylococcus aureus, MRSA, Staphylococcus aureus ECL 2963743, MRSA DAP-NS): 0.5 µg/mL (≈ 1.1 µM)
- MIC (Staphylococcus aureus, MRSA, Staphylococcus aureus R136): 0.5 µg/mL (≈ 1.1 µM)
- MIC (Staphylococcus aureus, NRS 12 / VISA, Staphylococcus aureus NRS12, VISA): 0.0625 µg/mL (≈ 0.138 µM)
- MIC (Staphylococcus aureus, NRS72, Staphylococcus aureus Sanger-476, NRS72): ≤ 0.0312 µg/mL
- MIC (Staphylococcus aureus, NRS157, Staphylococcus aureus NRS157): ≤ 0.0312 µg/mL
- MIC (Staphylococcus aureus, Staphylococcus aureus 6538P): ≤ 0.0312 µg/mL
- MIC (Staphylococcus aureus, VISA, Staphylococcus aureus FDA-CDC AR-BANK# 0222): ≤ 0.0312 µg/mL
- MIC (Staphylococcus aureus, VRSA, Staphylococcus aureus ECL 2963646): 0.5 µg/mL (≈ 1.1 µM)
- MIC (Staphylococcus epidermidis, ATCC12228, Staphylococcus epidermidis ATCC 12228): ≤ 0.0312 µg/mL
- MIC (Staphylococcus epidermidis, ATCC51625, Staphylococcus epidermidis CCF 15990, ATCC 51625): ≤ 0.0312 µg/mL
- MIC (Staphylococcus epidermidis, NRS7, Staphylococcus epidermidis NRS7, VISE): 0.5 µg/mL (≈ 1.1 µM)
- MIC (Staphylococcus epidermidis, NRS8, Staphylococcus epidermidis NRS8, VISE): 1 µg/mL (≈ 2.21 µM)
- MIC (Staphylococcus epidermidis, NRS60, Staphylococcus epidermidis NRS60, VISE): 0.0625 µg/mL (≈ 0.138 µM)
- MIC (Staphylococcus epidermidis, NRS101, Staphylococcus epidermidis NRS101): ≤ 0.0312 µg/mL
- MIC (Staphylococcus haemolyticus, ATCC29970, Staphylococcus haemolyticus ATCC 29970): ≤ 0.0312 µg/mL
- MIC (Staphylococcus intermedius, ATCC29663, Staphylococcus intermedius ATCC 29663): ≤ 0.0312 µg/mL
- MIC (Staphylococcus saprophyticus, ATCC15305, Staphylococcus saprophyticus ATCC 15305): 0.0625 µg/mL (≈ 0.138 µM)
- MIC (Strepotococcus pyogenes ATCC 14289): 0.125 µg/mL (≈ 0.276 µM)
- MIC (Strepotococcus pyogenes ATCC 19615): 0.125 µg/mL (≈ 0.276 µM)
- MIC (Streptococcus agalactiae, ATCC12386, Streptococcus agalactiae ATCC 12386): 0.25 µg/mL (≈ 0.551 µM)
- MIC (Streptococcus mutans, ATCC25175, Streptococcus mutans ATCC 25175): ≤ 0.0312 µg/mL
- MIC (Streptococcus oralis, ATCC9811, Streptococcus oralis ATCC 9811): 0.25 µg/mL (≈ 0.551 µM)
- MIC (Streptococcus pneumoniae, ATCC6301, Streptococcus pneumoniae ATCC 6301): 0.125 µg/mL (≈ 0.276 µM)
- MIC (Streptococcus pneumoniae, ATCC49619, Streptococcus pneumoniae ATCC 49619): 0.125 µg/mL (≈ 0.276 µM)
- MIC (Streptococcus pneumoniae, ATCC51916, Streptococcus pneumoniae Tenessee 23F, ATCC 51916, MDR): 0.125 µg/mL (≈ 0.276 µM)
- MIC (Streptococcus pneumoniae, ATCC700669, Streptococcus pneumoniae SP264, ATCC 700669, ST 23F): 0.0625 µg/mL (≈ 0.138 µM)
- MIC (Streptococcus pneumoniae, ATCC700673, Streptococcus pneumoniae Hungary 19A, ATCC 700673, MDR): 0.0625 µg/mL (≈ 0.138 µM)
- MIC (Streptococcus pneumoniae, ATCC700675, Streptococcus pneumoniae S. Africa 6B-8, ATCC 700675): 0.0625 µg/mL (≈ 0.138 µM)
- MIC (Streptococcus pneumoniae, ATCC700676, Streptococcus pneumonia England ST14-9 ATCC 700676, ERY-R): 0.125 µg/mL (≈ 0.276 µM)
- MIC (Streptococcus pneumoniae, ATCC 700677 / PRSP, Streptococcus pneumoniae CSR 14-10, ATCC 700677, PRSP): 0.0625 µg/mL (≈ 0.138 µM)
- MIC (Streptococcus pneumoniae, PRSP, Streptococcus pneumoniae TM532): 0.0625 µg/mL (≈ 0.138 µM)
- MIC (Streptococcus salivarius, ATCC13419, Streptococcus salivarius ATCC 13419): 0.25 µg/mL (≈ 0.551 µM)
- MIC (Streptococcus sanguinis, ATCC10556, Streptococcus sanguinis ATCC 10556): 0.25 µg/mL (≈ 0.551 µM)

Reference: patent US11746116B2, “Antibiotic resistance breakers” (KING'S COLLEGE LONDON, priority 2017, dated 2023)
